PMC6920949, “Muscle to Brain Partitioning as Measure of Transporter-Mediated Efflux at the Rat Blood–Brain Barrier and Its Implementation into Compound Optimization in Drug Discovery” (Pharmaceutics, 2019)

Assays:
[1] = design: method as in PMID 21934030; details: rat, brain slice method; cited from earlier work
[2] = rat, in vivo
Method: (§1) Animal experiments were performed in male rats of different strains (Han Wistar, Sprague Dawley, Lister Hooded, Long-Evans, supplied by commercial breeders, typically Charles River, Sulzfeld, Germany or Janvier Labs, Saint-Berthevin Cedex, France). Only two studies were done in female animals. Typically three animals were used per experiment. […] Compounds were dosed orally, intravenously, subcutaneously, or intraperitoneally. For tissue sampling animals were anaesthetized with Ketamin/Inactin. After dissection of the cisterna magna, approximately 50 µL CSF was collected via a 0.4-mm cannula. Blood was collected from the retroorbital plexus into K3EDTA coated vials (Sarstedt, Nümbrecht, Germany) and plasma was collected by centrifugation for 5 min at approximately 5000 rpm. Animals were exsanguinated via the vena cava. The femoral muscle was prepared. A small piece (approximately 0.2–0.5 g) was excised, rinsed in cold physiological NaCl, and the remaining fat and superficial vessels were removed. For brain isolation, skin and muscle of head and neck were removed. The cranium was opened with a bone trimmer by one central and two lateral incisions. […]
(§2) Prior to bioanalysis plasma samples and dialysates were spiked with internal standard solution and diluted with acetonitrile for protein precipitation. […] Quantification was performed using external calibration.

[3] = Kp,br/mu: brain to skeletal muscle partitioning, tissue distribution study in rats; details: rat, brain and skeletal (femoral) muscle
Method: as §1, §2

[4] = Kp,uu,brain by brain homogenate method; assay type: in vivo; details: brain and plasma (unbound), rat, Table 4, read-out: Kp,uu,brain(hom) (This publication)
From the text: Under steady-state conditions, Kp,uu,brain defines the ratio between the unbound drug concentration in brain (Cu,brain), i.e., the interstitial fluid (ISF) and the unbound drug concentration in plasma(Cu,plasma) (Equation (1)). Kp,uu,brain = Cu,brain/Cu,plasma(1) Using microdialysis, the concentrations in brain ISF can be determined. […] Kp,uu,brain = Cu,brain/Cu,plasma = (Cbrain × fu,brain)/(Cplasma × fu,plasma) = Kp,brain × (fu,brain/fu,plasma)(2) where Cplasma and Cbrain are the plasma and brain concentration, respectively. Kp is the partition coefficient of total drug in brain and plasma:Kp,brain = Cbrain/Cplasma(3)
Animal experiments were performed in male rats of different strains (Han Wistar, Sprague Dawley, Lister Hooded, Long-Evans, supplied by commercial breeders, typically Charles River, Sulzfeld, Germany or Janvier Labs, Saint-Berthevin Cedex, France). Only two studies were done in female animals. Typically three animals were used per experiment. […] Compounds were dosed orally, intravenously, subcutaneously, or intraperitoneally. […]
Binding of research compounds to plasma protein and tissue homogenates was determined using the equilibrium dialysis method as described previously [9, 15]. […] Unbound plasma concentration (fu,plasma) was calculated as:fu,plasma = (Cplasma − Cbuffer)/Cplasma,(7) where Cplasma and Cbuffer are the plasma and buffer concentration, respectively.

[5] = design: method as in PMID 28880093; details: dog cerebrum, cerebellum, brain stem; cited from earlier work
[6] = compounds without blood-brain barrier efflux; cited from earlier work

NC(=O)N1c2ccccc2C=Cc2ccccc21 [Carbamazapine]
Kp,uu,brain (Literature) [1]: 0.771
Kp,br/mu (This publication) [2]: 1.44

C=C[C@H]1C[N@@]2CC[C@H]1C[C@@H]2[C@@H](O)c1ccnc2ccc(OC)cc12 [Quinidine]
Kp [3]: 0.056
Kp uu [4]: 0.0276
effect of up to 5-fold P-gp and BCRP expression differences between brain regions on Kp,brain [5]: did not affect

Cc1nnc2n1-c1sc(CCC(=O)N3CCOCC3)cc1C(c1ccccc1Cl)=NC2 [apafant]
effect of up to 5-fold P-gp and BCRP expression differences between brain regions on Kp,brain [5]: did not affect

Cc1ncc2n1-c1ccc(Cl)cc1C(c1ccccc1F)=NC2 [midazolam]
distribution into brain and skeletal muscle [6]: very similar distributions into brain and skeletal muscle
